Source: the NIST ThermoML archive (doi:10.1016/j.jct.2004.06.004)
± gives the expanded uncertainty stated by the source.

Experiments:
[1] = Liquid
[2] = xn = mol fraction of the nth substance listed; settings: 101.3 kPa, Liquid

NCCO [2-aminoethan-1-ol]
Settings	mass density [kg/m3]
[1], 293.15 K, 101.33 kPa, Pycnometric method	1012.1 ± 0.5

[1], 101.3 kPa
Settings	viscosity [mPa·s]
298.15 K	18.91 ± 0.3
303.15 K	14.71 ± 0.26
308.15 K	11.82 ± 0.22
313.15 K	9.27 ± 0.18
318.15 K	7.52 ± 0.15
323.15 K	6.21 ± 0.13

NCCO [2-aminoethan-1-ol] + O
viscosity [mPa·s], [2]
Settings	x1 = 0.03219	x1 = 0.06969	x1 = 0.1138	x1 = 0.1666	x1 = 0.2306	x1 = 0.3102	x1 = 0.4116	x1 = 0.5452	x1 = 0.7296	x1 = 1
303.15 K	1.081 ± 0.11	1.448 ± 0.15	2.041 ± 0.21	2.93 ± 0.3	4.28 ± 0.44	6.27 ± 0.64	9.25 ± 0.94	12.42 ± 1.3	14.56 ± 1.5	14.71 ± 1.5
308.15 K	0.962 ± 0.099	1.282 ± 0.13	1.784 ± 0.18	2.513 ± 0.26	3.61 ± 0.37	5.23 ± 0.53	7.3 ± 0.74	9.75 ± 0.99	11.62 ± 1.2	11.82 ± 1.2
313.15 K	0.865 ± 0.089	1.149 ± 0.12	1.536 ± 0.16	2.085 ± 0.21	2.932 ± 0.3	4.23 ± 0.43	5.88 ± 0.6	7.82 ± 0.8	9.26 ± 0.94	9.27 ± 0.94
318.15 K	0.779 ± 0.08	1.01 ± 0.1	1.345 ± 0.14	1.786 ± 0.18	2.472 ± 0.25	3.51 ± 0.36	4.92 ± 0.5	6.53 ± 0.67	7.57 ± 0.77	7.52 ± 0.77
323.15 K	0.703 ± 0.072	0.907 ± 0.093	1.173 ± 0.12	1.553 ± 0.16	2.125 ± 0.22	2.925 ± 0.3	3.95 ± 0.4	5.24 ± 0.54	6.06 ± 0.62	6.21 ± 0.63

CCOCCO [2-ethoxyethan-1-ol]
[1]
Settings	mass density, 293.15 K [kg/m3]	viscosity, 293.15 K [mPa·s]	viscosity, 303.15 K [mPa·s]	viscosity, 308.15 K [mPa·s]	viscosity, 313.15 K [mPa·s]	viscosity, 318.15 K [mPa·s]	viscosity, 323.15 K [mPa·s]
101.3 kPa	–	2.077 ± 0.045	1.612 ± 0.038	1.413 ± 0.034	1.24 ± 0.03	1.166 ± 0.028	1.026 ± 0.025
101.33 kPa	929.7 ± 0.4	–	–	–	–	–	–

CCOCCO [2-ethoxyethan-1-ol] + O
viscosity [mPa·s], [2]
Settings	x1 = 0.0201	x1 = 0.04419	x1 = 0.07339	x1 = 0.1098	x1 = 0.1561	x1 = 0.2172	x1 = 0.3015	x1 = 0.4252	x1 = 0.6247	x1 = 1
303.15 K	1.046 ± 0.026	1.384 ± 0.033	1.709 ± 0.04	2.135 ± 0.049	2.516 ± 0.057	2.711 ± 0.061	2.858 ± 0.064	2.747 ± 0.062	2.266 ± 0.052	1.612 ± 0.038
308.15 K	0.924 ± 0.023	1.177 ± 0.029	1.472 ± 0.035	1.769 ± 0.041	2.057 ± 0.047	2.248 ± 0.051	2.329 ± 0.053	2.2 ± 0.05	1.951 ± 0.045	1.413 ± 0.034
313.15 K	0.814 ± 0.021	1.008 ± 0.025	1.238 ± 0.03	1.499 ± 0.035	1.711 ± 0.04	1.864 ± 0.043	1.947 ± 0.045	1.867 ± 0.043	1.676 ± 0.039	1.24 ± 0.03
318.15 K	0.71 ± 0.018	0.898 ± 0.023	1.108 ± 0.027	1.322 ± 0.032	1.521 ± 0.036	1.663 ± 0.039	1.723 ± 0.04	1.632 ± 0.038	1.516 ± 0.036	1.166 ± 0.028
323.15 K	0.651 ± 0.017	0.791 ± 0.02	0.958 ± 0.024	1.164 ± 0.028	1.339 ± 0.032	1.45 ± 0.034	1.55 ± 0.036	1.486 ± 0.035	1.361 ± 0.032	1.026 ± 0.025

COCCO [2-methoxyethan-1-ol]
[1]
Settings	mass density, 293.15 K [kg/m3]	viscosity, 293.15 K [mPa·s]	viscosity, 303.15 K [mPa·s]	viscosity, 308.15 K [mPa·s]	viscosity, 313.15 K [mPa·s]	viscosity, 318.15 K [mPa·s]	viscosity, 323.15 K [mPa·s]
101.3 kPa	–	1.991 ± 0.04	1.375 ± 0.033	1.126 ± 0.027	0.942 ± 0.023	0.832 ± 0.021	0.757 ± 0.019
101.33 kPa	965.2 ± 0.5	–	–	–	–	–	–

Settings	viscosity [mPa·s]
[1], 293.15 K, 101.33 kPa, Capillary tube (Ostwald / Ubbelohde) method	1.991 ± 0.015

COCCO [2-methoxyethan-1-ol] + O
viscosity [mPa·s], [2]
Settings	x1 = 0.0247	x1 = 0.05399	x1 = 0.08909	x1 = 0.1321	x1 = 0.1858	x1 = 0.2551	x1 = 0.3475	x1 = 0.4773	x1 = 0.6726	x1 = 1
303.15 K	1.08 ± 0.026	1.353 ± 0.032	1.656 ± 0.039	1.979 ± 0.046	2.247 ± 0.051	2.396 ± 0.054	2.418 ± 0.055	2.296 ± 0.052	1.825 ± 0.042	1.375 ± 0.033
308.15 K	0.953 ± 0.024	1.165 ± 0.028	1.459 ± 0.035	1.652 ± 0.039	1.888 ± 0.044	2.016 ± 0.046	2.051 ± 0.047	1.941 ± 0.045	1.528 ± 0.036	1.126 ± 0.027
313.15 K	0.811 ± 0.021	0.985 ± 0.024	1.205 ± 0.029	1.367 ± 0.033	1.529 ± 0.036	1.668 ± 0.039	1.733 ± 0.04	1.6 ± 0.038	1.323 ± 0.032	0.942 ± 0.023
318.15 K	0.735 ± 0.019	0.885 ± 0.022	1.031 ± 0.025	1.176 ± 0.028	1.368 ± 0.033	1.457 ± 0.034	1.53 ± 0.036	1.41 ± 0.033	1.133 ± 0.028	0.832 ± 0.021
323.15 K	0.667 ± 0.018	0.796 ± 0.02	0.926 ± 0.023	1.056 ± 0.026	1.226 ± 0.03	1.322 ± 0.032	1.381 ± 0.033	1.258 ± 0.03	1.05 ± 0.026	0.757 ± 0.019

O [water] + CCOCCO
[2], x2 = 0
Settings	viscosity [mPa·s]
303.15 K	0.7975 ± 0.02
308.15 K	0.7195 ± 0.019
313.15 K	0.6532 ± 0.017
318.15 K	0.5963 ± 0.016
323.15 K	0.5471 ± 0.015

O [water] + COCCO
[2], x2 = 0
Settings	viscosity [mPa·s]
303.15 K	0.7975 ± 0.02
308.15 K	0.7195 ± 0.019
313.15 K	0.6532 ± 0.017
318.15 K	0.5963 ± 0.016
323.15 K	0.5471 ± 0.015

O [water] + NCCO
[2], x2 = 0
Settings	viscosity [mPa·s]
303.15 K	0.7975 ± 0.082
308.15 K	0.7195 ± 0.074
313.15 K	0.6532 ± 0.067
318.15 K	0.5963 ± 0.061
323.15 K	0.5471 ± 0.056
